Results on eight compounds are retold here after patent US20040248234A1, “Sensitive and selective in vitro assay for the detection of reactive drug intermediates” (Pfizer Inc, priority 2003, published 2004).

The conditions of data set [1]: literature reports; cited from earlier work.
The test system of data set [2] is human liver microsomal (HL-mix-13).
Data set [3] shares this test system. Conditions: 10 μM substrate, 1 mM GSH, 0.5 μM P450, NADPH generating system, HPLC/SRM.

Where two headings read alike, the source gives them in different places.

In the case of `CC(=O)Oc1ccccc1C(=O)O` [aspirin], the “formation of reactive species / reactive intermediates as reported” value in data set [1] was “have not been reported to produce such reactive species”.
With `CN(CCOc1ccc(CC2SC(=O)NC2=O)cc1)c1ccccn1` (stereo not drawn) [Rosiglitazone], in data set [2], the “Response observed using GSH-EE as trapping agent” value (from here on “Response observed using GSH-EE”) is given as “Yes”.
As to `O=C(O)Cc1ccccc1Nc1c(Cl)cccc1Cl` [Diclofenac], in data set [2], the “Response observed using GSH-EE” value is recorded as “Yes”.
Felbamate: the “Response observed using GSH-EE” value in data set [2] (10 μM substrate, 1 mM GSH-EE, 0.5 μM P450, NADPH generating system, HPLC/SRM) was “Yes (A response in the assay was deemed “yes” if there were no co-eluting species contained in control (blank) samples and analyte peak to signal ratio was >10)”. The “Response observed using GSH as trapping agent” value in data set [3] is on record as “No (A response in the assay was deemed “no” if the signal to noise ratio was <10)”.
In the case of `NC(=O)N1c2ccccc2C=Cc2ccccc21` [Carbamazepine], in data set [2], the “Response observed using GSH-EE” value is reported as “Yes”.
Regarding `CCN(CC)Cc1cc(Nc2ccnc3cc(Cl)ccc23)ccc1O` [Amodiaquine], in data set [2], the “Response observed using GSH-EE” value is given as “Yes”.
As to `CC(=O)Nc1ccc(O)cc1` [Acetaminophen], the “formation of reactive species / reactive intermediates as reported” value in data set [1] was “have been reported to produce such species”.
On to `COc1ccc2c(c1)c(CC(=O)O)c(C)n2C(=O)c1ccc(Cl)cc1` [Indomethacin], for which the “Response observed using GSH-EE” value in data set [2] is “No”.
